Legend:
Test in all cases: relative viability (nuclei count vs DMSO), 5 days (fraction); higher = more cells survive
[1] = compound: CO[C@@H]1[C@H](N(C)C(=O)c2ccccc2)C[C@H]2O[C@]1(C)n1c3ccccc3c3c4c(c5c6ccccc6n2c5c31)C(=O)NC4 [Midostaurin] + CC(=O)c1c(C)c2cnc(Nc3ccc(N4CCNCC4)cn3)nc2n(C2CCCC2)c1=O [Palbociclib] (partner 0.5 µM)
In short: (§1)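 Relative viability was taken as the ratio of nuclei in treated wells to nuclei in vehicle wells. Lung cancer cell lines in 1536-well plates received compounds by pin tool one day after seeding, either one drug alone or a fixed anchor-drug dose plus five library-drug doses (not always all listed) in √10 steps. Nuclei were counted on 4× images after 5 days of treatment, and values are medians of duplicate plates.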

Midostaurin + Bortezomib = compound: CO[C@@H]1[C@H](N(C)C(=O)c2ccccc2)C[C@H]2O[C@]1(C)n1c3ccccc3c3c4c(c5c6ccccc6n2c5c31)C(=O)NC4 [Midostaurin] + CC(C)C[C@H](NC(=O)[C@H](Cc1ccccc1)NC(=O)c1cnccn1)B(O)O [Bortezomib] (partner 0.002 µM)
In short: as §1

Midostaurin + Crizotinib = compound: CO[C@@H]1[C@H](N(C)C(=O)c2ccccc2)C[C@H]2O[C@]1(C)n1c3ccccc3c3c4c(c5c6ccccc6n2c5c31)C(=O)NC4 [Midostaurin] + C[C@@H](Oc1cc(-c2cnn(C3CCNCC3)c2)cnc1N)c1c(Cl)ccc(F)c1Cl [Crizotinib] (partner 1 µM)
In short: as §1

[2] = compound: COc1cc(-c2nn([C@H]3CC[C@H](N4CCN(C(C)=O)CC4)CC3)c3ncnc(N)c23)ccc1NC(=O)c1cc2ccccc2n1C + CC(C)C[C@H](NC(=O)[C@H](Cc1ccccc1)NC(=O)c1cnccn1)B(O)O [Bortezomib] (partner 0.002 µM)
In short: as §1

[3] = compound: COc1cc(-c2nn([C@H]3CC[C@H](N4CCN(C(C)=O)CC4)CC3)c3ncnc(N)c23)ccc1NC(=O)c1cc2ccccc2n1C + CS(=O)(=O)N1CCN(Cc2cc3nc(-c4cccc5[nH]ncc45)nc(N4CCOCC4)c3s2)CC1 [Pictilisib] (partner 1 µM)
In short: as §1

Cell Line | relative viability ([1]; first compound 0.01 µM) | relative viability ([1]; first compound 0.03162 µM) | relative viability ([1]; first compound 0.1 µM) | relative viability ([1]; first compound 0.3162 µM) | relative viability (Midostaurin + Bortezomib; first compound 0.01 µM) | relative viability (Midostaurin + Bortezomib; first compound 0.03162 µM) | relative viability (Midostaurin + Bortezomib; first compound 0.1 µM) | relative viability (Midostaurin + Bortezomib; first compound 0.3162 µM) | relative viability (Midostaurin + Crizotinib; first compound 0.01 µM) | relative viability (Midostaurin + Crizotinib; first compound 0.03162 µM) | relative viability (Midostaurin + Crizotinib; first compound 0.1 µM) | relative viability (Midostaurin + Crizotinib; first compound 0.3162 µM) | relative viability ([2]; first compound 0.0128 µM) | relative viability ([2]; first compound 0.04048 µM) | relative viability ([2]; first compound 0.128 µM) | relative viability ([2]; first compound 1.28 µM) | relative viability ([3]; first compound 0.0128 µM) | relative viability ([3]; first compound 0.04048 µM) | relative viability ([3]; first compound 0.128 µM) | relative viability ([3]; first compound 1.28 µM)
NCI-H1993 | 0.495 | 0.802 | 0.794 | 0.656 | 1.03 | 1.15 | 1.08 | 1.11 | 0.879 | 0.762 | 1.06 | 0.893 | 1.2 | 1.09 | 1 | 0.956 | 0.845 | 0.899 | 0.826 | 0.775
NCI-H1734 | 0.334 | 0.38 | 0.373 | 0.351 | 0.868 | 0.886 | 0.915 | 0.786 | 0.653 | 0.691 | 0.705 | 0.647 | 0.995 | 0.862 | 1.1 | 0.756 | 0.47 | 0.38 | 0.481 | 0.362
HOP-62 | 0.452 | 0.48 | 0.455 | 0.501 | 0.887 | 0.728 | 0.635 | 1.17 | 0.846 | 0.624 | 0.988 | 1.15 | 0.845 | 0.883 | 0.992 | 0.621 | 0.831 | 0.285 | 0.738 | 0.604
LOU-NH91 | 0.514 | 0.527 | 0.499 | 0.552 | 0.506 | 0.48 | 0.529 | 0.528 | 0.753 | 0.748 | 0.758 | 0.721 | 0.498 | 0.522 | 0.515 | 0.518 | 0.517 | 0.555 | 0.511 | 0.509
ChaGo-K-1 | 0.912 | 1 | 0.889 | 0.935 | 0.985 | 1.28 | 0.759 | 1.12 | 1.09 | 1.15 | 1.05 | 1.03 | 0.922 | 1.13 | 0.865 | 0.973 | 0.66 | 0.669 | 0.587 | 0.644
NCI-H2228 | 0.569 | 0.954 | 0.842 | 0.845 | 1.21 | 1.19 | 1 | 0.942 | 0.662 | 0.434 | 0.361 | 0.509 | 0.945 | 1.08 | 0.804 | 0.559 | 0.408 | 0.275 | 0.337 | 0.375
PC-14 | 0.487 | 0.643 | 0.485 | 0.369 | 0.839 | 0.713 | 0.811 | 0.815 | 0.903 | 0.882 | 0.832 | 0.907 | 0.9 | 0.967 | 0.892 | 1.06 | 0.744 | 0.792 | 0.664 | 0.625
NCI-H1437 | 0.353 | 0.326 | 0.34 | 0.367 | 0.556 | 0.499 | 0.478 | 0.545 | 0.935 | 0.87 | 0.878 | 1 | 0.587 | 0.522 | 0.365 | 0.585 | 0.413 | 0.514 | 0.406 | 0.314

From the supplement of paper PMC10307832
